Consider 15 molecules from US20240360178A1, “MACROCYCLIC IMMUNOMODULATORS” (Bristol-Myers Squibb Company, priority 2021, published 2024).

Positions of bridges follow the written chain, without caps; N, C: chain ends. Non-standard residues stand in square brackets, D forms with d. Residues, ends and D or L forms follow the SMILES beside them. ξ: configuration not given here. *: point of attachment. Phe(4-COOH) = N[C@@H](Cc1ccc(C(=O)O)cc1)C(=O)O; Bip = N[C@@H](Cc1ccc(-c2ccccc2)cc1)C(=O)O; Phe(3-OMe) = COc1cccc(C[C@H](N)C(=O)O)c1; NMeF = CN[C@@H](Cc1ccccc1)C(=O)O; 3Pal = N[C@@H](Cc1cccnc1)C(=O)O; 4Pal = N[C@@H](Cc1ccncc1)C(=O)O; dHyp = O=C(O)[C@H]1C[C@H](O)CN1; dPip = O=C(O)[C@H]1CCCCN1; Carboxymethyl = O=C(O)C*; NMeA = CN[C@@H](C)C(=O)O; dAze = O=C(O)[C@H]1CCN1; ξV = CC(C)C(N)C(=O)O; Sar = CNCC(=O)O

The target of the experiment is T1, human PD-1 (Jurkat-PD-1 cells) / PE-labeled human PD-L1-Ig (Homo sapiens, UniProt Q15116).
T1 construct: expressed in transfected cells; host or cells: Jurkat cell line over-expressing human PD-1
T1 sequence (Q15116 25-288): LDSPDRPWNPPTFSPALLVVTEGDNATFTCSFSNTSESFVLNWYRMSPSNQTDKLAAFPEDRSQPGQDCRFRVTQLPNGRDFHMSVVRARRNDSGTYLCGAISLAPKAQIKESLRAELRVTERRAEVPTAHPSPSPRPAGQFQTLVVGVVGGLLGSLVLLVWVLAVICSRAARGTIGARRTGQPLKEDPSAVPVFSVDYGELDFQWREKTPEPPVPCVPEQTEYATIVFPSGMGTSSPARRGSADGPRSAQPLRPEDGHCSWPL
The experiment is described as follows: Jurkat-PD-1 Cell Binding High-Content Screening Assay (CBA); Jurkat hPD1-PDL1 assay. Conditions: Jurkat cell line over-expressing human PD-1; PE-labeled PD-L1-Ig 20 nM final; compound incubated 2 hours at 37° C.; read-out: Jurkat HPD1-PDL1 IC50. As for the experimental part: The ability of the compounds of formula (I) to bind to PD-1 was investigated using a Jurkat-PD-1 Cell Binding High-Content Screening Assay.
Jurkat-PD-1 Cell Binding High-Content Screening Assay (CBA)
Phycoerythrin (PE) was covalently linked to the Ig epitope tag of human PD-L1-Ig and fluorescently-labeled PD-L1-Ig was used for binding studies with a Jurkat cell line over-expressing human PD-1 (Jurkat-PD-1). Briefly, 8×10^3 Jurkat-hPD-1 cells were seeded into 384 well plates in 20 μL of DMEM supplemented with 10% fetal calf serum. 100 nL of compound was added to cells followed by incubation at 37° C. for 2 hours. Then, 5 μL of PE-labeled PD-L1-Ig (20 nM final), diluted in DMEM supplemented with 10% fetal calf serum. […] Data was collected and processed using a Cell Insight NXT High Content Imager and associated software.
Broadly, the IC50 is the point on the concentration scale where inhibition reaches its midpoint. Consider `CC(C)C[C@@H]1NC(=O)[C@H](CCCNC(=N)N)NC(=O)[C@H](Cc2ccccc2)N(C)C(=O)[C@H](C)N(C)C(=O)[C@H](CCCNC(=N)N)NC(=O)[C@H](Cc2ccc(-c3ccccc3)cc2)NC(=O)[C@H](C(C)C)NC(=O)[C@H](Cc2c[nH]c3ccccc23)NC(=O)[C@H](CC(=O)O)NC(=O)[C@H](Cc2ccc(O)cc2)NC(=O)[C@H](Cc2ccccc2)NC(=O)CSC[C@@H](C(=O)NCC(N)=O)NC(=O)[C@H](CO)NC(=O)[C@H](C(C)C)NC1=O` [Example 1000] ({CH2CO}-FYDWV[Bip]R[NMeA][NMeF]RLVSCG-NH2; thioether N-14), for which the IC50 turned out to be 260 nM. `CC(C)C[C@@H]1NC(=O)[C@H](Cc2c[nH]c3ccccc23)NC(=O)[C@H](CC(=O)O)NC(=O)[C@H](Cc2ccc(O)cc2)NC(=O)[C@H](Cc2ccccc2)NC(=O)CSC[C@@H](C(=O)NCC(N)=O)NC(=O)[C@H](CO)NC(=O)[C@H](C(C)C)NC(=O)[C@H](CC(C)C)NC(=O)[C@H](CC(N)=O)NC(=O)CN(C)C(=O)[C@H](C)N(C)C(=O)[C@H](C(C)C)NC(=O)[C@H](Cc2ccc(-c3ccccc3)cc2)NC1=O` [Example 1001] ({CH2CO}-FYDWL[Bip]V[NMeA][Sar]NLVSCG-NH2; thioether N-14): the IC50 stood at 920 nM.

On to `CC(C)C[C@@H]1NC(=O)[C@H](Cc2c[nH]c3ccccc23)NC(=O)[C@H](CC(=O)O)NC(=O)[C@H](Cc2ccc(O)cc2)NC(=O)[C@H](Cc2ccccc2)NC(=O)CSC[C@@H](C(=O)N[C@@H](C)C(N)=O)NC(=O)[C@H](CO)NC(=O)[C@H](C(C)C)NC(=O)[C@H](CC(C)C)NC(=O)[C@H](CC(N)=O)NC(=O)CN(C)C(=O)[C@H]2C[C@H](O)CN2C(=O)C(C(C)C)NC(=O)[C@H](Cc2ccc(-c3ccccc3)cc2)NC1=O` (stereo partly drawn) [Example 1003] ({CH2CO}-FYDWL[Bip][ξV][dHyp][Sar]NLVSCA-NH2; thioether N-14), for which the IC50 is 760 nM. For `CC(C)C[C@@H]1NC(=O)[C@H](Cc2c[nH]c3ccccc23)NC(=O)[C@H](CC(=O)O)NC(=O)[C@H](Cc2ccc(O)cc2)NC(=O)[C@H](Cc2ccccc2)NC(=O)CSC[C@@H](C(=O)N[C@@H](C)C(N)=O)NC(=O)[C@H](CO)NC(=O)[C@H](C(C)C)NC(=O)[C@H](CC(C)C)NC(=O)[C@H](CC(N)=O)NC(=O)[C@H]2CCCCN2C(=O)[C@H]2CCCN2C(=O)[C@H](C(C)C)NC(=O)[C@H](Cc2ccc(-c3ccccc3)cc2)NC1=O` [Example 1006] ({CH2CO}-FYDWL[Bip]V[dP][dPip]NLVSCA-NH2; thioether N-14), the IC50 was determined as 40 nM. The result for `CC(C)C[C@@H]1NC(=O)[C@H](Cc2c[nH]c3ccccc23)NC(=O)[C@H](CC(=O)O)NC(=O)[C@H](Cc2ccc(O)cc2)NC(=O)[C@H](Cc2ccccc2)NC(=O)CSC[C@@H](C(=O)N[C@@H](C)C(N)=O)NC(=O)[C@H](CO)NC(=O)[C@H](C(C)C)NC(=O)[C@H](CC(C)C)NC(=O)[C@H](CC(N)=O)NC(=O)[C@H]2CCCN2C(=O)[C@H]2CCCN2C(=O)[C@H](C(C)C)NC(=O)[C@H](Cc2ccc(-c3ccccc3)cc2)NC1=O` [Example 1007] ({CH2CO}-FYDWL[Bip]V[dP][dP]NLVSCA-NH2; thioether N-14) reads 150 nM. Consider `CC(C)C[C@@H]1NC(=O)[C@H](Cc2c[nH]c3ccccc23)NC(=O)[C@H](CC(=O)O)NC(=O)[C@H](Cc2ccc(C(=O)O)cc2)NC(=O)[C@H](Cc2ccccc2)NC(=O)CSC[C@@H](C(=O)N[C@@H](C)C(N)=O)NC(=O)[C@H](CO)NC(=O)[C@H](C(C)C)NC(=O)[C@H](CC(C)C)NC(=O)[C@H](CC(N)=O)NC(=O)[C@H]2CCCN2C(=O)[C@H](C)N(C)C(=O)[C@H](C(C)C)NC(=O)[C@H](Cc2ccc(-c3ccccc3)cc2)NC1=O` [Example 1020] ({CH2CO}-F[Phe(4-COOH)]DWL[Bip]V[NMeA][dP]NLVSCA-NH2; thioether N-14), for which the concentration for half-maximal inhibition (IC50) is 40 nM. `CC(C)C[C@@H]1NC(=O)[C@H](Cc2c[nH]c3ccccc23)NC(=O)[C@H](CC(=O)O)NC(=O)[C@H](Cc2ccc(O)cc2)NC(=O)[C@H](Cc2ccccc2)NC(=O)CSC[C@@H](C(=O)N[C@@H](C)C(N)=O)NC(=O)[C@H](CO)NC(=O)[C@H](C(C)C)NC(=O)[C@H](CC(C)C)NC(=O)[C@H](CC(N)=O)NC(=O)[C@H]2CCN2C(=O)[C@H](C)N(C)C(=O)[C@H](C(C)C)NC(=O)[C@H](Cc2ccc(-c3ccccc3)cc2)NC1=O` [Example 1021] ({CH2CO}-FYDWL[Bip]V[NMeA][dAze]NLVSCA-NH2; thioether N-14): the IC50 is 40 nM. With `COc1cccc(C[C@@H]2NC(=O)[C@H](CC(=O)O)NC(=O)[C@H](Cc3ccc(O)cc3)NC(=O)[C@H](Cc3ccccc3)NC(=O)CSC[C@@H](C(=O)N[C@@H](C)C(N)=O)NC(=O)[C@H](CO)NC(=O)[C@H](C(C)C)NC(=O)[C@H](CC(C)C)NC(=O)[C@H](CC(N)=O)NC(=O)[C@H]3CCCN3C(=O)[C@H](C)N(C)C(=O)[C@H](C(C)C)NC(=O)[C@H](Cc3ccc(-c4ccccc4)cc3)NC(=O)[C@H](CC(C)C)NC2=O)c1` [Example 1022] ({CH2CO}-FYD[Phe(3-OMe)]L[Bip]V[NMeA][dP]NLVSCA-NH2; thioether N-14), the IC50 was 10 nM.

In the case of `CC(C)C[C@@H]1NC(=O)[C@H](Cc2c[nH]c3ccccc23)NC(=O)[C@H](CC(=O)O)NC(=O)[C@H](Cc2ccc(O)cc2)NC(=O)[C@H](Cc2ccncc2)NC(=O)CSC[C@@H](C(=O)N[C@@H](C)C(N)=O)NC(=O)[C@H](CO)NC(=O)[C@H](C(C)C)NC(=O)[C@H](CC(C)C)NC(=O)[C@H](CC(N)=O)NC(=O)[C@H]2CCCN2C(=O)[C@H](C)N(C)C(=O)[C@H](C(C)C)NC(=O)[C@H](Cc2ccc(-c3ccccc3)cc2)NC1=O` [Example 1023] ({CH2CO}-[4Pal]YDWL[Bip]V[NMeA][dP]NLVSCA-NH2; thioether N-14), the IC50 is 40 nM. The result for `CC(C)C[C@@H]1NC(=O)[C@H](Cc2c[nH]c3ccccc23)NC(=O)[C@H](CC(=O)O)NC(=O)[C@H](Cc2ccc(C(=O)O)cc2)NC(=O)[C@H](Cc2cccnc2)NC(=O)CSC[C@@H](C(=O)N[C@@H](C)C(N)=O)NC(=O)[C@H](CO)NC(=O)[C@H](C(C)C)NC(=O)[C@H](CC(C)C)NC(=O)[C@H](CC(N)=O)NC(=O)[C@H]2CCCN2C(=O)[C@H](C)N(C)C(=O)[C@H](C(C)C)NC(=O)[C@H](Cc2ccc(-c3ccccc3)cc2)NC1=O` [Example 1025] ({CH2CO}-[3Pal][Phe(4-COOH)]DWL[Bip]V[NMeA][dP]NLVSCA-NH2; thioether N-14) reads 40 nM; that for `CC(C)C[C@@H]1NC(=O)[C@H](Cc2c[nH]c3ccccc23)NC(=O)[C@H](CC(=O)O)NC(=O)[C@H](Cc2ccc(O)cc2)NC(=O)[C@H](Cc2ccccc2)NC(=O)CSC[C@@H](C(=O)N[C@@H](C)C(N)=O)NC(=O)[C@H](CO)NC(=O)[C@H](C(C)C)NC(=O)[C@H](CC(C)C)NC(=O)[C@H](CC(N)=O)NC(=O)[C@H]2CCCN2C(=O)[C@H](C)N(C)C(=O)[C@H](CCCNC(=N)N)NC(=O)[C@H](Cc2ccc(-c3ccccc3)cc2)NC1=O` [Example 1027] ({CH2CO}-FYDWL[Bip]R[NMeA][dP]NLVSCA-NH2; thioether N-14), 50 nM; that for `CC(C)C[C@@H]1NC(=O)[C@H](C)NC(=O)[C@H]2CCCN2C(=O)[C@H](C)N(C)C(=O)[C@H](CCC(=O)O)NC(=O)[C@H](Cc2ccc(-c3ccccc3)cc2)NC(=O)[C@H](CC(C)C)NC(=O)[C@H](Cc2c[nH]c3ccccc23)NC(=O)[C@H](CC(=O)O)NC(=O)[C@H](Cc2ccc(O)cc2)NC(=O)[C@H](Cc2ccccc2)NC(=O)CSC[C@@H](C(=O)N[C@@H](C)C(N)=O)NC(=O)[C@H](CO)NC(=O)[C@H](C(C)C)NC1=O` [Example 1028] ({CH2CO}-FYDWL[Bip]E[NMeA][dP]ALVSCA-NH2; thioether N-14), 50 nM. The result for `CC(C)C[C@@H]1NC(=O)[C@H](Cc2c[nH]c3ccccc23)NC(=O)[C@H](CC(=O)O)NC(=O)[C@H](Cc2ccc(OCC(=O)O)cc2)NC(=O)[C@H](Cc2ccccc2)NC(=O)CSC[C@@H](C(=O)N[C@@H](C)C(N)=O)NC(=O)[C@H](CO)NC(=O)[C@H](C(C)C)NC(=O)[C@H](CC(C)C)NC(=O)[C@H](CC(N)=O)NC(=O)[C@H]2CCCN2C(=O)[C@H](C)N(C)C(=O)[C@H](C(C)C)NC(=O)[C@H](Cc2ccc(-c3ccccc3)cc2)NC1=O` [Example 1029] ({CH2CO}-FY(Carboxymethyl)DWL[Bip]V[NMeA][dP]NLVSCA-NH2; thioether N-14) reads 50 nM. For `CC(C)C[C@@H]1NC(=O)[C@H](Cc2c[nH]c3ccccc23)NC(=O)[C@H](CC(=O)O)NC(=O)[C@H](Cc2ccc(OCC(=O)O)cc2)NC(=O)[C@H](Cc2ccccc2)NC(=O)CSC[C@@H](C(=O)NCC(N)=O)NC(=O)[C@H](CO)NC(=O)[C@H](C(C)C)NC(=O)[C@H](CC(C)C)NC(=O)[C@H](CC(N)=O)NC(=O)CN(C)C(=O)[C@H](C)N(C)C(=O)[C@H](C(C)C)NC(=O)[C@H](Cc2ccc(-c3ccccc3)cc2)NC1=O` [Example 1030] ({CH2CO}-FY(Carboxymethyl)DWL[Bip]V[NMeA][Sar]NLVSCG-NH2; thioether N-14), the IC50 worked out at 60 nM. With `CC(C)C[C@@H]1NC(=O)[C@H](Cc2c[nH]c3ccccc23)NC(=O)[C@H](CC(=O)O)NC(=O)[C@H](Cc2ccc(O)cc2)NC(=O)[C@H](CC(N)=O)NC(=O)CSC[C@@H](C(=O)N[C@@H](C)C(N)=O)NC(=O)[C@H](CO)NC(=O)[C@H](C(C)C)NC(=O)[C@H](CC(C)C)NC(=O)[C@H](CC(N)=O)NC(=O)[C@H]2CCCN2C(=O)[C@H](C)N(C)C(=O)[C@H](C(C)C)NC(=O)[C@H](Cc2ccc(-c3ccccc3)cc2)NC1=O` [Example 1031] ({CH2CO}-NYDWL[Bip]V[NMeA][dP]NLVSCA-NH2; thioether N-14), the IC50 came to 60 nM.
